Source: patent US20050043331A1, “Substituted 3-(2,5-disubstituted)pyridyl-4-aryl pyrroles for treating inflammatory diseases” (priority 2002, published 2005)
Read-outs that look alike come from different tables or passages of the source.

How the values were obtained:
TNF-α [1] = test: In vivo rodent assay for inhibition of LPS-induced TNF-α production; parameters: species or system Mice (BALB/cJ females); details: 10 mg/kg oral; for inhibition in vivo at 10 mg/kg: Mus musculus, po
Description: Mice (BALB/cJ females, Jackson Laboratories) or rats (Lewis males, Charles River) were fasted for 30 min. The animals were dosed orally on a mg/kg basis at a range of times prior to being injected intraperitoneally with LPS at 1 mg/kg and returned to their cages for 1 h. Animals were anesthetized by CO2, exsanguinated by cardiac puncture and whole blood collected (0.1-0.7 mL). The blood was allowed to clot and serum was transferred to a centrifuge tube. This sample was centrifuged, and serum was collected, aliquoted and frozen at −80° C. Samples were tested by commercial ELISA's for TNF-α (Endogen for mouse TNF-α and Biosource for rat TNF-α).

TNF-α [2] = test: In-vitro whole cell assay for TNF-α inhibition (LPS-stimulated PBMC, ELISA); type: cell-based; details: TNF-α by ELISA
Description: Freshly obtained venous blood was anticoagulated with heparin, diluted with an equal volume of phosphate buffered saline (“PBS”) and placed in a sterile tube or other container. Aliquots (30 mL) of this mixture were transferred to centrifuge tubes, which were underlaid with Ficoll-Hypaque (15 mL). The prepared tubes were centrifuged at 400×g, without braking, for 30 min at room temperature. Approximately ½ to ⅔ of the platelet layer above the mononuclear cell band was removed with a pipette. The majority of the mononuclear cell layer was carefully removed using a pipette and these PBMC's were diluted with PBS and spun at 600×g for 15 min. The resulting PBMC's were washed with another portion of PBS and spun at 400×g for 10 min at room temperature. The recovered pellets were diluted in low endotoxin RPMI/1% FCS culture medium, and gave a cell concentration of 0.5-2.0×10^6 PMBC/ mL. A small volume of the suspension was removed for counting on a hemocytometer and the remaining preparation was centrifuged at 200×g for 15 min at room temperature. The recovered pelleted PMBC's were resuspended in RPMI/1% FCS to a concentration of 1.67×10^6/mL.
To run the assay, the PBMC suspension (180 μL) was transferred to duplicate wells of a 96-well flat-bottom microtiter plate and incubated for 1 h at 37° C. A solution of test compound (10 μL: prepared at 20× the desired final concentration) was added to each well and the plate was incubated for 1 h at 37° C. A solution (10 μL) of LPS in RPMI/1% FCS (200 ng/mL) was added and the wells were incubated overnight at 37° C. The supernate (100 μL) was removed from each well and diluted with RPMI/1% FCS (400 μL). The samples were analyzed for TNF-α using a commercial ELISA kit (Genzyme).

[3] = 0.5 h, 0.5 h, read-out: Mouse 10 mg/kg % inhib 0.5 h
[4] = 2 h, 2 h, read-out: Mouse 10 mg/kg % inhib 2 h

SMILES	inhibition in vivo at 10 mg/kg (TNF-α [1]; [3]) [%]	IC50 (TNF-α [2]) [nM]	inhibition in vivo at 10 mg/kg (TNF-α [1]; [4]) [%]	Mouse 10 mg/kg % inhib 2 h (TNF-α [1]; 2 h, 10 mg/kg) [%]
Fc1ccc(-c2cn3c(c2-c2ccncc2)CNCC3)cc1 [Cpd 30, 7-(4-Fluorophenyl)-1,2,3,4-tetrahydro-8-(4-pyridinyl)-pyrrolo[1,2-a]pyrazine]	71	208	–	–
CCN1C(=O)c2c(-c3ccncc3)c(-c3ccc(F)cc3)cn2C1=O [Cpd 31, 2-Ethyl-6-(4-fluorophenyl)-7-(4-pyridinyl)-1H-pyrrolo[1,2-c]imidazole-1,3(2H)-dione]	72	401	–	–
CCNC(=O)c1[nH]cc(-c2ccc(F)cc2)c1-c1ccncc1 [Cpd 32, N-Ethyl-4-(4-fluorophenyl)-3-(4-pyridinyl)-1H-pyrrole-2-carboxamide]	-24	209	–	–
Cn1cc(-c2ccncc2)c(-c2ccc(F)cc2)c1C(=O)NCC(=O)c1ccccc1 [Cpd 34, 3-(4-Fluorophenyl)-1-methyl-N-(2-oxo-2-phenylethyl)-4-(4-pyridinyl)-1H-pyrrole-2-carboxamide]	81	157	37	–
Cn1cc(-c2ccncc2)c(-c2ccc(F)cc2)c1-c1nnco1 [Cpd 35, 4-[4-(4-Fluorophenyl)-1-methyl-5-(1,3,4-oxadiazol-2-yl)-1H-pyrrol-3-yl]pyridine]	60	18	-1	–
Cn1cc(-c2ccncc2)c(-c2ccc(F)cc2)c1-c1ncc(-c2ccccc2)o1 [Cpd 36, 4-[4-(4-Fluorophenyl)-1-methyl-5-(5-phenyl-2-oxazolyl)-1H-pyrrol-3-yl]pyridine]	81	1030	35	–
Cn1cc(-c2ccncc2)c(-c2ccc(F)cc2)c1-c1cnco1 [Cpd 41, 4-[4-(4-Fluorophenyl)-1-methyl-5-(5-oxazolyl)-1H-pyrrol-3-yl]pyridine]	53	59	–	–
COC(=O)c1c(-c2ccncc2)c(-c2ccc(F)cc2)c(Br)n1C [Cpd 43, 5-Bromo-4-(4-fluorophenyl)-1-methyl-3-(4-pyridinyl)-1H-pyrrole-2-carboxylic acid methyl ester]	-6	180	–	–
COC(=O)c1c(-c2ccncc2)c(-c2ccc(F)cc2)c(C#CCN2CCOCC2)n1C [Cpd 44, 4-(4-Fluorophenyl)-1-methyl-5-[3-(4-morpholinyl)-1-propynyl]-3-(4-pyridinyl)-1H-pyrrole-2-carboxylic acid methyl ester]	–	788	47	–
COC(=O)c1c(-c2ccc(F)cc2)c(-c2ccncc2)c2n1CCC2C (centres unmarked) [Cpd 47, 6-(4-Fluorophenyl)-2,3-dihydro-1-methyl-7-(4-pyridinyl)-1H-pyrrolizine-5-carboxylic acid methyl ester]	67	208	52	–
CCCc1c(-c2ccnc(SC)n2)c(-c2ccc(F)cc2)cn1CCCN(C)C [Cpd 48]	-37	148	–	–
CCCC1=C(c2ccnc(N[C@@H](C)c3ccccc3)n2)C(c2ccc(F)cc2)=CC1CCN1CCOCC1 (some centres unmarked) [Cpd 55]	-35	4	–	–
CCOC(=O)c1[nH]cc(-c2ccncc2)c1-c1cccc(C(F)(F)F)c1 [Cpd 57]	-8	96	–	–
Cn1c(N2CCCC2)c(-c2ccncc2)c(-c2ccc(F)cc2)c1C(C)(C)O [Cpd 111]	37.7	192	–	–
Cn1cc(-c2ccc(F)cc2)c(-c2ccncc2)c1CO [Cpd 112]	65	169	–	–
COC(=O)c1c(-c2ccc(F)cc2)c(-c2ccncc2)c(N2CCC(N)C2)n1C (centres unmarked) [Cpd 113]	25	237	–	–
COC(=O)c1c(-c2ccc(F)cc2)c(-c2ccncc2)c(NCCN(C)C)n1C [Cpd 114]	-43	98	–	–
COC(=O)c1c(-c2ccc(F)cc2)c(-c2ccncc2)c(NCCN2CCCCC2)n1C [Cpd 115]	-36	92	–	–
COC(=O)c1c(-c2ccc(F)cc2)c(-c2ccncc2)c(N2CCN(C(C)=O)CC2)n1C [Cpd 116]	57	1530	–	–
COC(=O)c1c(-c2ccc(F)cc2)c(-c2ccncc2)c(Nc2ccccc2)n1C [Cpd 119]	-10.5	57	–	–
COC(=O)c1c(-c2ccc(F)cc2)c(-c2ccncc2)cn1C(C)=O [Cpd 121]	-32.1	194	–	–
COC(=O)c1c(-c2ccc(F)cc2)c(-c2ccncc2)c(-c2ccc(N(C)C)cc2)n1C [Cpd 122]	-22	120	–	–
CCN1CCN(c2c(-c3ccncc3)c(-c3ccc(F)cc3)c(C(=O)OC)n2C)CC1 [Cpd 124]	67.8	135	–	–

SMILES	inhibition in vivo at 10 mg/kg (TNF-α [1]; [3]) [%]	IC50 (TNF-α [2]) [nM]	inhibition in vivo at 10 mg/kg (TNF-α [1]; [4]) [%]	Mouse 10 mg/kg % inhib 2 h (TNF-α [1]; 2 h, 10 mg/kg) [%]
COC(=O)c1c(-c2ccc(F)cc2)c(-c2ccncc2)c(N2CCN(C3CCCC3)CC2)n1C [Cpd 125]	48.6	139	–	–
COC(=O)c1c(-c2ccc(F)cc2)c(-c2ccncc2)c(N2CCN(CC3CC3)CC2)n1C [Cpd 128]	66.3	269	–	–
O=C1CCn2c(Br)c(-c3ccncc3)c(-c3ccc(F)cc3)c21 [Cpd 129]	31	819	–	–
COC(=O)c1c(-c2ccc(F)cc2)c(-c2ccncc2)c(NC2CCNCC2)n1C [Cpd 131]	7	315	–	–
COC(=O)C1CCn2cc(-c3ccncc3)c(-c3ccc(F)cc3)c2C1=O (centres unmarked) [Cpd 133]	-9	326	–	–
O=C1CCCn2cc(-c3ccncc3)c(-c3ccc(F)cc3)c21 [Cpd 134]	61	150	31	–
COc1ccc(CNCc2[nH]cc(-c3ccncc3)c2-c2ccc(F)cc2)cc1 [Cpd 138]	-30	190	–	–
COC(=O)c1c(-c2ccc(F)cc2)c(-c2ccncc2)cn1C(=O)OC [Cpd 139]	-22	23	–	–
COC(=O)c1c(-c2ccncc2)c(-c2ccc(F)cc2)cn1C [Cpd 141]	-56	55	–	–
CCn1cc(-c2ccncc2)c(-c2ccc(F)cc2)c1CO [Cpd 143]	48	70	–	–
COC(=O)c1c(-c2ccc(F)cc2)c(-c2ccncc2)c(-c2cccc(NC(C)=O)c2)n1C [Cpd 144]	59	2	–	–
CON(C)C(=O)c1c(-c2ccc(F)cc2)c(-c2ccncc2)c(N2CCN(C(=O)OC(C)(C)C)CC2)n1C [Cpd 145]	45	72	–	–
CN(C)CCn1cc(-c2ccncc2)c(-c2ccc(F)cc2)c1CO [Cpd 147]	20	852	–	–
COC(=O)c1c(-c2ccncc2)c(-c2ccc(F)cc2)c(NCCN2CCOCC2)n1C [Cpd 148]	91	10000	–	–
COC(=O)c1c(-c2ccncc2)c(-c2ccc(F)cc2)c(NCCc2ccccc2)n1C [Cpd 152]	58	1020	–	–
CCOC(=O)c1c(-c2ccc(F)cc2)c(-c2ccncc2)c(CCCOCc2ccccc2)n1C [Cpd 155]	51	248	–	–
COC(=O)c1c(-c2ccc(F)cc2)c(-c2ccncc2)c(NCCN2CCCC2)n1CCN1CCOCC1 [Cpd 156]	23	969	–	–
COC(=O)c1c(-c2ccc(F)cc2)c(-c2ccncc2)c(Nc2ccc(N3CCOCC3)cc2)n1C [Cpd 159]	29	1560	–	–
COC(=O)c1c(-c2ccc(F)cc2)c(-c2ccncc2)c(NCc2ccc(OC)cc2)n1C [Cpd 160]	79	42	-46	–
CCn1c(C(=O)OC)c(-c2ccc(F)cc2)c(-c2ccncc2)c1N(C)CCN1CCOCC1 [Cpd 163]	66	105	13	–
COC(=O)c1c(-c2ccncc2)c(-c2ccc(F)cc2)c(C#CCCO)n1C [Cpd 167]	30	894	–	–
Cn1cc(-c2ccncc2)c(-c2ccc(F)cc2)c1C#N [Cpd 168]	67	171	–	−19
